The source of these data is article PMC7862291, “Full-length in meso structure and mechanism of rat kynurenine 3-monooxygenase inhibition” (Communications Biology, 2021).

In one data set the target is T1, hKMO (Homo sapiens, UniProt O15229).
T1 construct: purchased Origene
In words: Surface plasmon resonance. In kind it is binding. Particulars: SPR, immobilised hKMO, single-cycle kinetics. The procedure:
Surface plasmon resonance experiments were performed using a Biacore 8K+ (GE Healthcare) instrument. A 20-μg/mL concentration of hKMO (Origene) was immobilised on a Series S Sensor Chip CM5 (GE Healthcare) by NHS/EDC amine coupling. The Rmax was 13,500 resonance units (RU) upon binding.
Five-fold serial dilutions of 50 nM compound 3 finalised in 2% DMSO were made, and run in a buffer containing HBS-P+ (GE Healthcare), 1 mM DTT, and 2% DMSO using single-cycle kinetics.
Surface plasmon resonance data were analysed using Biacore Insight Evaluation software. All fits used a simple 1:1 Langmuir binding model showing reasonable fit and low fit χ^2 values.

Data set [1] in a line: Pharmacokinetic (brain penetration) study in rats. In kind it is in vivo. To be noted: Sprague-Dawley Crl:CD(SD), rat, male SD rats, 10 mg/kg ip, 1 h after a single administration. The method, then:
Brain penetration studies were conducted in non-fasted male SD rats [Sprague-Dawley rats Crl:CD(SD), 8 weeks of age]. Compound 1 was intraperitoneally (ip) administered at 10 mg/kg in a solution of saline containing 10% dimethylformamide, 10% propylene glycol, and 4% 1 normality (N) sodium hydrate. […] Blood and brain were collected at 1 h after a single administration. The test compound in plasma samples or brain samples was extracted by deproteination with acetonitrile, and then analysed using LC-MS/MS.

Like-named read-outs stand apart in the source and are kept apart here.

T1 sequence (O15229 whole entry): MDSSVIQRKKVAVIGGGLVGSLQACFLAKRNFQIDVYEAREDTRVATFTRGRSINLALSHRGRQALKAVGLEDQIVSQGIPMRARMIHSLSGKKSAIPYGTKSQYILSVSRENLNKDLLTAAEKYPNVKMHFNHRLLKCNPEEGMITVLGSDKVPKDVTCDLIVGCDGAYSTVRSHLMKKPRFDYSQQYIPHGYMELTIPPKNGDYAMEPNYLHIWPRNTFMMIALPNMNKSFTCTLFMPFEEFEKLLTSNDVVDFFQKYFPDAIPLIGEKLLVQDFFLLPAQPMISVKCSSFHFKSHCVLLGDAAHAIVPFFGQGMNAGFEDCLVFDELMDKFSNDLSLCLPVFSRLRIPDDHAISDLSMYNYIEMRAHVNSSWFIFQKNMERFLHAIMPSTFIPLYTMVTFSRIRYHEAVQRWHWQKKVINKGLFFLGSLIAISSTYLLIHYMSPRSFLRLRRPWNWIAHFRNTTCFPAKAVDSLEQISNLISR

Broadly, the Kd is the free concentration of one partner at which half of the binding sites on the other are occupied at equilibrium, for simple one-to-one binding. Read a low Kd as tighter binding. The term koff denotes the first-order rate constant of dissociation. A high value points to a short-lived complex. As a reminder, the kon is the second-order rate constant of association. On to `Cc1cnn(-c2ccc(OCc3ccccc3)c(C(=O)O)c2)c1-c1ccc(Cl)c(F)c1` [Compound 3], for which, on hKMO, the Kd worked out at 0.039 nM, the koff stood at 2.1e-05 s⁻¹ and the kon was 540000 M⁻¹ s⁻¹.

Broadly, the Kp is tissue or fluid exposure divided by exposure in the circulation. In turn, `Cc1cnn(-c2cccc(C(=O)O)c2)c1-c1ccccc1` [Compound 1] had a Kp at 1 h in data set [1] (brain/plasma) of 0.029. Further, the concentration at 1 h is 25.4 ng/g in data set [1] (brain, read-out: Exposure in brain) and 869 ng/mL in data set [1] (plasma, read-out: Exposure in plasma).
